Values joined by “and” are separate entries in the source; they are usually repeats but may differ in a detail not shown here. Equal entries are not always repeated. “Also recorded” adds a separate entry of the source.
Experiments:
[1] = test system: REC11 cells; test: BrdU proliferation of EGF-stimulated REC11 cystic renal epithelial cells; type: cell-based, mouse; settings: 36 hrs, after EGF 25 ng/ml for 6 hours
Description: REC11 cystic cell line is a conditionally immortalized epithelial collecting tubule (CT) cell line derived from the cystic kidneys of the BPK mouse model of human ARPKD crossed to the ImmortoMouse. The BPK mouse as a human ARPKD model has been described in Nauta J. et al., Pediatr Nephrol 1993, 7:163-172 and Nauta J. et al., Pediatr Res 1995, 37:755-763. The procedures for immortalization, cell isolation, cell culture and the complete phenotypic characterization of this cell line have been described in detail in Sweeney W. E. et al., Am J Physiol C Physiol 2001, 281:C1695-705. All analysis and experiments were performed on REC11 cells grown for a minimum 6 days under non-permissive conditions to eliminate residual Large T.
Proliferation of REC11 cells was stimulated by exposure of the cells for 6 hours with EGF (25 ng/ml). Next, the cells were treated with vehicle, HET0016 (10 μM, a 20-HETE synthesis inhibitor), HET0016 (20 μM), DDMS (10 μM, a 20-HETE synthesis inhibitor), or WIT-002 (10 μM, a 20-HETE antagonist) for 36 hrs, pulsed with BrdU, and then stained for BrdU labeled cells to determine the degree of cell proliferation. […] Cells treated with a higher dose of HET0016 (20 μM) (column C) reduced proliferation by 75% (p<0.020). Cells treated with another chemically dissimilar inhibitor of the synthesis of 20-HETE, DDMS (10 μM) (column D), reduced proliferation by 47% (p<0.05). Cells treated with WIT-002 (10 μM) (column E) reduced proliferation by 25%.

[2] = test system: BPK mice; test: Chronic HET-0016 treatment of cystic BPK mice (kidney mass, cysts); type: in vivo, mouse
Protocol: This study was conducted using “immortalized” BPK mice as previous described by Sweeney W E et al. (Am J Physiol Cell Physiol, 281:C1695-705, 2001). In brief, BPK female heterozygotes (bpk^+/−) were bred with H-2k^b-ts-A58 transgenic males. Compound heterozygotes (bpk^+/−; H-2K^b-ts-A58^+/−) were identified by PCR and backcrossing to produce cystic offspring. Compound heterozygotes were mated to generate cystic (bpk^−/−; H-2K^b-ts-A58^+/±) and non-cystic (bpk^+/−; H-2K^b-ts-A58^+/±) offspring carrying at least one copy of the Immorto transgene (bpk^−/−; H-2K^b-ts-A58^+/±). All of the mice were genotyped for the H-2K^b-ts-A58 transgene by PCR analysis of DNA extracts from tail sections as described in Takacs-Jarrett M et al. Am J Physiol, 275:F802-11, 1998.
Kidney and liver tissues were harvested for qualitative analysis as described in Sweeney W E et al. (Kidney Int, 57:33-40, 2000) at postnatal day 21. Briefly, kidney and liver were fixed in 4.0% paraformaldehyde in phosphate buffer (pH 7.4) for 30 min at 4° C. Tissues were then washed, dehydrated through a graded series of acetone, and fixed in Immunobed embedding medium (Polysciences, Warrington, Pa.). Sections were cut at 4 μm, mounted on glass slides, and stained with hematoxylin or lectins staining the proximal tubule [Lotus tetragonobulus agglutinin (LTA)] and collecting tubule [Dolichol biflorus agglutinin (DBA)]. Segmental nephron cyst localization was characterized by light microscopy, and cystic lesions were quantitated by a morphometric index as described in Nakanishi K et al. (J Am Soc Nephrol, 12:719-25, 2001), Richards W G et al. (J Clin Invest, 101:935-9, 1998), Sweeney W E et al. (Kidney Int, 57:33-40, 2000), and Sweeney W E et al. (Kidney Int, 64:1310-9, 2003).
We administered HET-0016 (10 mg/kg/day), a specific 20-HETE synthesis inhibitor, intraperitoneally on a daily basis from post-natal day 7 to post-natal day 20. On day 21, the mice were sacrificed and the kidneys analyzed. […] Chronic blockade of 20-HETE synthesis lowered the KW/BW ratio to 9.4 in the HET-0016 treated BPK mice (Table 3).

[3] = BPK (−/−), 10 mg/kg/day i.p., post-natal day 7-20, day 21

Question: “N-hydroxy-N-(4-butyl-2-methylphenyl)-formamidine [HET0016]” was tested. Which “reduction of proliferation (BrdU labeled cells) vs vehicle” value ([1]; 10 μM) did it give?
Answer: 66%

Question: What about the “reduction of proliferation (BrdU labeled cells) vs vehicle” value ([1]; 20 μM) of the same substance?
Answer: 75%

Question: What about the Body weight [2, 3] of the same substance?
Answer: 10.3 ± 1.0^¥ g

Question: And the “Kidney Weight” value [2, 3]?
Answer: 0.97 ± 0.32 g

Question: What about the KW/BW ([2]; BPK (−/−), 10 mg/kg/day i.p., post-natal day 7-20, day 21, 10 mg/kg/day) of the same substance?
Answer: 9.4% and 9.4 ± 3.3 %

Question: What about the kidney size ([2]; BPK mice, 10 mg/kg/day chronic daily, vehicle 1.08 g) of the same substance?
Answer: 0.43 g

Question: And the “kidney size vs vehicle-treated BPK mice (FIG. 4)” value ([2]; BPK mice, 10 mg/kg/day i.p.)?
Answer: dramatically smaller

Question: And the “reduction in body weight vs vehicle” value ([2]; BPK mice, 10 mg/kg/day i.p.)?
Answer: not statistically significant

Question: And the “reduction of KW/BW ratio vs vehicle” value ([2]; BPK mice, 10 mg/kg/day i.p.)?
Answer: 53%

Question: What about the “reduction of kidney size vs vehicle” value ([2]; BPK mice, 10 mg/kg/day i.p.) of the same substance?
Answer: 56%

Question: What about the “size and number of renal cysts (histology)” value ([2]; BPK mice, 10 mg/kg/day, day 21 kidneys, 10 mg/kg/day) of the same substance?
Answer: marked reductions in the size and number of renal cysts; also recorded: dramatic reduction in the DBA-labeled collecting tubule cysts

Question: What about the “collecting tubule cystic index (CI)” value ([2]; BPK mice, 10 mg/kg/day, untreated 4.7+/−0.6) of the same substance?
Answer: 1.93+/−0.2

— US9511072B2, “Methods of modulating cell proliferation and cyst formation in polycystic kidney and liver diseases” (The Medical College of Wisconsin, Inc., priority 2006, dated 2016)
